Measurements: US6448246B1 (dated 2002)

- melting point: 160 to 162 °C
SMILES: O=C(NCc1ccccc1)C1C=Nc2ccccc2S1 (stereo not shown)
